# Results as given in patent US20200037600A1, “MESOIONIC IMIDAZOPYRIDINES AS INSECTICIDES” (Bayer Aktiengesellschaft, priority 2017, published 2020).
# Assays:
# Format in all cases: in vivo
# [1] = test system: Myzus persicae; assay: Myzus persicae spray test; details: application rate 500 g/ha; Chinese cabbage leaf discs; after 5 days
# [2] = test system: Diabrotica balteata; assay: Diabrotica balteata spray test; details: application rate 160 μg/well; beetle larvae on germinated wheat grains; after 7 days
# [3] = test system: Nilaparvata lugens; assay: Nilaparvata lugens test; details: application rate 500 g/ha; rice plants; after 4 days
# Method: (§1) Solvent: 78.0 parts by weight of acetone • • 1.5 parts by weight of dimethylformamide
# (§2) Emulsifier: alkylaryl polyglycol ether
# (§3) To produce a suitable active compound formulation, 1 part by weight of active compound is dissolved with the specified parts by weight of solvent and made up to the desired concentration with water containing an emulsifier concentration of 1000 ppm. To produce further test concentrations, the formulation is diluted with emulsifier-containing water.
# Rice plants (Oryza sativa) are sprayed with the active compound formulation of the desired concentration and then infected with the brown planthopper (Nilaparvata lugens).
# After 4 days, the efficacy in % is determined. 100% means that all of the planthoppers have been killed; 0% means that none of the planthoppers have been killed.
# [4] = test system: Ctenocephalides felis; assay: Ctenocephalides felis in vitro contact test with adult cat fleas; details: application rate 5 μg/cm^2 (=500 g/ha), after 48 h
# Method: Ctenocephalides felis—In Vitro Contact Tests with Adult Cat Fleas
# For the coating of the test tubes, 9 mg of active compound are first dissolved in 1 ml of acetone p.a. and then diluted to the desired concentration with acetone p.a. 250 μl of the solution are distributed homogeneously on the inner walls and the base of a 25 ml glass tube by turning and rocking on an orbital shaker (rocking rotation at 30 rpm for 2 h). With 900 ppm of active compound solution and internal surface area 44.7 cm^2, given homogeneous distribution, an area-based dose of 5 μg/cm^2 is achieved.
# After the solvent has evaporated off, the tubes are populated with 5-10 adult cat fleas (Ctenocephalides felis), sealed with a perforated plastic lid and incubated in a horizontal position at room temperature and ambient humidity. After 48 h, efficacy is determined. To this end, the tubes are stood upright and the fleas are knocked to the base of the tube. Fleas which remain motionless at the base or move in an uncoordinated manner are considered to be dead or moribund.
# 100% efficacy means that all the fleas were dead or moribund. 0% efficacy means that no fleas were harmed.
# [5] = test system: Nezara viridula; assay: Nezara viridula spray test; details: application rate 500 g/ha; larvae on barley plants; after 4 days
# Method: Nezara viridula—Spray Test
# as §1, §2, §3
# Barley plants (Hordeum vulgare) infected with larvae of the Southern green shield bug (Nezara viridula) are srayed with an active compound formulation of the desired concentration.
# After 4 days, the efficacy in % is determined. 100% means that all of the shield bugs have been killed; 0% means that none of the shield bugs have been killed.
# [6] = test system: Myzus persicae; assay: Myzus persicae oral test; details: after 5 days
# Summary of the method: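 Aphids fed through parafilm on compound formulation (acetone, diluted with water) mixed 50:150 μL with IPL41 insect medium (33%+15% sugar), using a mixed population. Efficacy was recorded after 5 days as % mortality (100% = all aphids killed).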
smiles,measurement,setting,value
CC(=O)c1c([O-])[n+]2ccccc2n1Cc1cnc(Cl)s1 [Example I-008],efficacy,[1],100%
same,efficacy,[2],100%
same,efficacy,[3],100%
same,efficacy,[4],100%
same,efficacy,[5],90%
same,efficacy,[6]; application rate 4 ppm,100%
same,efficacy,[6]; application rate 20 ppm,100%
